Key:
ID8 cells = assay: MTT reduction assay on ID8 cells; assay type: cell-based; conditions: maximal inhibition; 4 h treatment; maximum concentration 100 µM
Method: FIGURE 5 The ruthenium, osmium, and iridium complexes of ligands 4a, 4b, and 5a decrease MTT reduction. For MTT assays, 4 × 10^3 A2780 cells, 3 × 10^3 ID8 cells, or 6 × 10^3 human primary fibroblasts were plated into 96-well plates. Cells were treated with the compounds in the concentrations indicated for 4 h. Data are represented as average ± SD, from four biological replicates on A2780, and from three biological replicates on ID8 and human primary fibroblasts. For the datasets of 5a and Os-5a on human primary fibroblasts, the data represent four biological replicates. Individual assays were performed in duplicate. Values were normalized for vehicle-treated cells, and the absorbance for vehicle-treated cells equals 1. Normality was assessed using the D'Agostino-Pearson test. Statistical significance was assessed using a two-way ANOVA test followed by Tukey's post hoc test. For better visibility, normality, transformations, statistical tests, and p values are presented in an MS Excel sheet at https://figshare.com/s/3a0aa60b66f3f746f41e. Color code: black-free ligand (4a,b or 5a), khaki-ruthenium complex (Ru-4a,b), green-iridium complex (Ir-4a,b), blue-osmium complex (Os-4a,b or Os-5a), and red-rhodium complex (Rh-4a,b). An MTT reduction assay measures the activity of mitochondrial complex I and can be used to detect toxicity ([[…] et al., 2016]). The assay was performed in a manner similar to that described by [[…] et al. (2023b)]. Briefly, cells were plated into 96-well plates the day before the assay. Cells were treated with the compounds for 4 h; then, MTT was added to a 0.5 mg/mL final concentration, and cells were incubated at 37°C in a cell incubator for 40-60 min, as a function of the cell line being assessed. The culture medium was removed, the reduced MTT dye was dissolved in dimethylsulfoxide, and plates were measured in a plate photometer (Thermo Scientific Multiscan GO spectrophotometer, Waltham, MA, United States) at 540 nm. […] In calculations, the readings for these wells were considered to 1, and all readings were expressed relative to these values. […]

[1] = test system: human primary dermal fibroblasts; assay: SRB assay on human primary dermal fibroblasts; assay type: cell-based; conditions: maximal inhibition; 48 h treatment; maximum concentration 100 µM
Method: FIGURE 7 The ruthenium, osmium, and iridium complexes of ligands 4a, 4b, and 5a are cytostatic on ovarian cancer models with a good therapeutic index. For SRB assays, 1.5 × 10^3 A2780 cells, 1.5 × 10^3 ID8 cells, or 4 × 10^3 primary fibroblasts were plated into 96-well plates. Cells were treated with the compounds in the concentrations indicated for 48 h. Data are represented as average ± SD, from four biological replicates on A2780 and human primary fibroblasts, except in the case of Os complexes, where experiments were performed in three biological replicates. ID8 cells were assessed in three biological replicates. Individual assays were performed in duplicate. Values were normalized for vehicle-treated cells, and the absorbance for vehicle-treated cells equals 1. Normality was assessed using the D’Agostino–Pearson test. Statistical significance was assessed using a two-way ANOVA test followed by Tukey’s post hoc test. For better visibility, normality, transformations, statistical tests, and p values are presented in an MS Excel sheet at https://figshare.com/s/3a0aa60b66f3f746f41e. Color code: black—free ligand (4a,b or 5a), khaki—ruthenium complex (Ru-4a,b), blue—osmium complex (Os-4a,b or Os-5a), green—iridium complex (Ir-4a,b), and red—rhodium complex (Rh-4a,b). An SRB assay measures protein content of cells in correlation with the cell number in an assay well and can therefore be used to assess cell proliferation or long-term cytostasis ([Skehan et al., 1990]). Cells were seeded into 96-well plates the day before the treatment for the assay. Cells were treated with the various compounds for 48 h. Then, the medium was removed, and cells were fixed with 10% trichloroacetic acid. Fixed cells were washed in distilled water three times, followed by staining with SRB (0.4 m/V% dissolved in 1% acetic acid) for 10 min. Stained cells were washed in 1% acetic acid five times; the acetic acid was removed, and the cells were left to dry. […] Plates were measured in a plate photometer (Thermo Scientific Multiscan GO spectrophotometer, Waltham, MA, United States) at 540 nm. […]

| SMILES | ID8 MTT max % (ID8 cells) [%] | Fibroblast SRB max % [1] [%] |
| --- | --- | --- |
| O=C(OC[C@H]1O[C@H](n2cc(-c3ccccn3)nn2)[C@H](OC(=O)c2ccccc2)[C@@H](OC(=O)c2ccccc2)[C@@H]1OC(=O)c1ccccc1)c1ccccc1 [Complex 4a, 1-(2’,3’,4’,6’-Tetra-O-benzoyl-α-D-glucopyranosyl)-4-(pyridin-2-yl)-1,2,3-triazole] | 0 | 11.89 |
| O=C(OC[C@H]1O[C@H](n2cc(-c3ccc4ccccc4n3)nn2)[C@H](OC(=O)c2ccccc2)[C@@H](OC(=O)c2ccccc2)[C@@H]1OC(=O)c1ccccc1)c1ccccc1 [Complex 4b, 1-(2’,3’,4’,6’-Tetra-O-benzoyl-α-D-glucopyranosyl)-4-(quinolin-2-yl)-1,2,3-triazole] | 0 | 10.76 |
| CCCCC(=O)OC[C@H]1O[C@H](n2cc(-c3ccccn3)nn2)[C@H](OC(=O)CCCC)[C@@H](OC(=O)CCCC)[C@@H]1OC(=O)CCCC [Complex 5a, 1-(2’,3’,4’,6’-Tetra-O-pentanoyl-α-D-glucopyranosyl)-4-(pyridin-2-yl)-1,2,3-triazole] | 15.89 | 27.97 |

Reference: paper PMC12434071, “Platinum-group metal half-sandwich complexes of 1-(α-D-glucopyranosyl)-4-hetaryl-1,2,3-triazoles: synthesis, solution equilibrium studies, and investigation of their anticancer and antimicrobial activities” (Frontiers in Chemistry, 2025)
